Patent publication EP1161417B1, “METHODS AND COMPOSITIONS FOR TREATING LEUKEMIA” (HSC Research and Development Limited Partnership, priority 1999, dated 2000)

Columns and labels:
Jak2 kinase = target: T1, Jak2 kinase (Homo sapiens, UniProt O60674); assay: in vitro kinase assay on Jak2 immunoprecipitated from G2 cell lysate; type: biochemical; conditions: scanning autoradiographs of the kinase assays
T1 construct: Jak2 kinase was immunoprecipitated from a 1% Triton-X100 lysate of 10x10^6 G2 cells; endogenous in cells; host or cells: G2 pre-B leukemia cell line
T1 sequence (O60674 whole entry): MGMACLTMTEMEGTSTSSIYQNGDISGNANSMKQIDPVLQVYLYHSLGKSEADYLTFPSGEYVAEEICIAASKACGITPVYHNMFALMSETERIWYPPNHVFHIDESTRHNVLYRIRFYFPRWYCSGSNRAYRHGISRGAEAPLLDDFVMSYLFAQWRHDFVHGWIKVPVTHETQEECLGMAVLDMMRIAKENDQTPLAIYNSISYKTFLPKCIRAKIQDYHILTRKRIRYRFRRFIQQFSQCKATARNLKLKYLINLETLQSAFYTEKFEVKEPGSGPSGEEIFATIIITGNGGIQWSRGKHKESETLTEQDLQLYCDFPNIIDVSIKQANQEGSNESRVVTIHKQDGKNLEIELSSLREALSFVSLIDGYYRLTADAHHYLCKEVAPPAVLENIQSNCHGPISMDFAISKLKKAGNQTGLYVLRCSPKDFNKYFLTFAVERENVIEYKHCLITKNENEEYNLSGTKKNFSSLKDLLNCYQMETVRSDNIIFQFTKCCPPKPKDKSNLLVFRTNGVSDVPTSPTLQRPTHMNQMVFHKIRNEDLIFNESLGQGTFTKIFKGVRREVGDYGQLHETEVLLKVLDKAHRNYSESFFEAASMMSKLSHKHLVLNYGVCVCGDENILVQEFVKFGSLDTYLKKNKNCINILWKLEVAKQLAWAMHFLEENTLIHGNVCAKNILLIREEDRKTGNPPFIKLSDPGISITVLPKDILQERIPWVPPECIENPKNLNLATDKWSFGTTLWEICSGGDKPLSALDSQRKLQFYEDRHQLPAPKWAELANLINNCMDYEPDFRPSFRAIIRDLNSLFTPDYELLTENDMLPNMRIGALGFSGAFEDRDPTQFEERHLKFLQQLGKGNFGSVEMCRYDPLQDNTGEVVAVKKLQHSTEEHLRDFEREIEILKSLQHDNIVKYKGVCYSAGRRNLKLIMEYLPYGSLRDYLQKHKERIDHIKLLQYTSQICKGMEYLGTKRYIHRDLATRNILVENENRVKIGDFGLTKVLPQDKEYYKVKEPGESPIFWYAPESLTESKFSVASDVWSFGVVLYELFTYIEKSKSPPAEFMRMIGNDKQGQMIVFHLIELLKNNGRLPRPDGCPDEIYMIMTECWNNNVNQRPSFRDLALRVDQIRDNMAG
Procedure: Compounds chosen on the basis of their ability to inhibit the growth (colony formation) of the pre-B leukemia cell line G2 were tested for inhibition of Jak2 kinase.
Jak2 kinase was immunoprecipitated from a 1% Triton-X100 lysate of 10x10^6 G2 cells. An in vitro kinase assay was performed on the immunoprecipitated Jak2 in the presence or absence of varying concentrations of the compounds AG 1977, AG 1978, AG 2009 and AG 2010.
Stock solutions of 100mM tyrphostin were made in 100% DMSO and further dilutions made in 10% DMSO. Control kinase assays carried out in the presence of DMSO concentrations of 5-30% alone were unaffected by its presence.
Initial experiments were done with tyrphostin concentrations of 0.1, 1.0 and 10µM. These concentrations had no affect on the kinase activity of Jak2. […]

G2 ALL cells = assay: clonogenic assay, inhibition of colony formation of ALL cell line G2; type: cell-based, human
Procedure: Inhibition of colony formation was studied by methods described previously (Kamel-Reid et al., (1992), Leukemia, v. 6, pp. 8-17; Meydan et al., (1996), Nature, v. 379, pp. 645-648).
ALL cell lines A1 (at 8x10^5 cells/ml), C1 (at 4x10^4 cells/ml) and G2 (at 1.15x10^6 cells/ml) were plated in 1 ml volumes, in the absence of exogenous growth factors, into 35 mm petri dishes (Nunc, Gibco) containing alpha MEM (Gibco) plus 10% FCS (Cansera Rexdale, Ont.) in 0.9% (vol/vol) methylcellulose (Fluka, Switzerland). Cultures were set up at 37°C with 5% CO2 in a humidified atmosphere and 10 uM of a selected tyrphostin was added. Colonies consisting of more than 20 cells were counted at 12 days (A1), 5 days (C1) and 14 days (G2) using an inverted microscope. Similar results were obtained with A1 and C1.
Various concentrations of tyrphostins were tested for inhibition of ALL cells in the clonogenic assay described in Example 2. Compounds AG 1977. 1978, 2007, 2008, 2009 and 2010 were tested against ALL cell lines A1, C1 and G2 in doses ranging from nanomolar to micromolar values.

normal bone marrow cells = assay: modified CFU-GEMM clonogenic assay on normal bone marrow cells; type: cell-based, human; conditions: 40µM
Procedure: Compounds showing inhibition of ALL colony formation were examined for their effect on normal bone marrow cells using a modified CFU-GEMM clonogenic assay.
The assay was performed according to Fauser and Messner (1978), Blood, v. 52, pp. 1243-8, and Messner and Fausser (1980), Blut, v. 41, pp. 327-333, with some variations. In brief, heparinized bone marrow cells were layered over Percoll (Pharmacia Fine Chemical. Piscataway N.J.) at a density of 1.077 gm/ml and centrifuged at 400 g at 4°C for 10 min. to remove neutrophils and RBCs. The fractionated bone marrow cells at 2x10^5 cells/ml were cultured in IMDM (OCI, Toronto) containing 0.9% (vol/vol) methylcellulose supplemented with 30% FCS (Cansera Rexdale, Ont.) or normal human plasma, a cocktail of cytokines consisting of G-CSF (10 ng/ml. Amgen), IL-3 (40 U/ml, Immunex), MGF (50 ng/ml, Immunex), Erythropoietin (2u/ml, Epprex) or TPO (10 ng/ml, Amgen) and 5x10^-5 2-mercaptoethanol. The culture mixture was plated in 1 ml volumes into 35 mm petri dishes and incubated at 37°C with 5% CO2 in a humidified atmosphere with concentrations of tyrphostin up to 40 µm.

Row | Compound | %inhibition of kinase activity (Jak2 kinase; 5µM tyrphostin) [%] | %inhibition of kinase activity (Jak2 kinase; 25µM tyrphostin) [%] | %inhibition of kinase activity (Jak2 kinase; 50µM tyrphostin) [%] | inhibition at 0.016 µM (G2 ALL cells; Homo sapiens, dose of 16nM, G2 cells) [%] | clonogenic inhibition (G2 ALL cells; against G2 cells, dose responsive (Fig. 13), compared with AG 1977, 1978, 2007, 2008, 2010) | differential therapeutic index (G2 ALL cells; survival curve of normal BM and G2 colonies (Fig. 14)) | inhibition of normal bone marrow colonies (normal bone marrow cells)
1 | N#C/C(=C\c1cc(O)c(O)c(CSCc2ccccc2)c1)C(=O)NCc1ccccc1 [AG 1977, N-benzyl-2-cyano-3-(3',4'-dihydroxy-5'-methylenethiobenzylphenyl) acrylamide] | 23 | 14 | 15 | – | – | – | –
2 | N#C/C(=C\c1cc(O)c(O)c(CSc2ccccc2)c1)C(=O)NCc1ccccc1 [AG 1978, N-benzyl-2-cyano-3-(3',4-dihydroxy-5'-methylenethiophenylphenyl) acrylamide] | 10 | 13 | 46 | – | – | – | –
3 | N#C/C(=C\c1cc(O)c(O)c(CSCCc2ccccc2)c1)C(=O)NCc1ccccc1 [AG 2009, N-benzyl-2-cyano-3-(3',4'-dihydroxy-5'-(methylenethioethylphenyl)phenyl) acrylamide] | 0 | 0 | 8 | > 50 | most potent clonogenic inhibition | greater than 2 logs | –
4 | N#C/C(=C\c1cc(O)c(O)c(CSCCCc2ccccc2)c1)C(=O)NCc1ccccc1 [AG 2010, N-benzyl-2-cyano-3-(3',4'-dihydroxy-5'-(methylenethiopropylphenyl)phenyl) acrylamide] | 5 | 5 | 39 | – | – | – | significant inhibition
